Earlier results on 39 compounds are cited in patent publication US20230380420A1, “HARD SURFACE DISINFECTING COMPOSITION” (priority 2020, published 2023).

The conditions of the first data set: alcohols; room temperature.
Consider `CCCCO` [1-butanol], for which the “~δp” value is given as around 5.7 MPa^1/2.
As for `CCCCCCCCCCO` [1-decanol], the “~δp” value is given as around 10.0 MPa^1/2.
In the case of `CCCCCO` [1-pentanol], the “~δp” value is listed as around 4.5 MPa^1/2.
For the compound `CCCO` [1-propanol], the “~δp” value is reported as around 6.8 MPa^1/2.
Take `OCC(Cl)CCl` (stereo not drawn) [2,3-dichloropropanol]: the “~δp” value is around 9.2 MPa^1/2.
On to `OC1C=CCC1` (stereo not drawn) [2-cyclopentenyl alcohol], for which the “~δp” value was around 7.6 MPa^1/2.
Turning to `CCCCCCCCC(C)O` (stereo not drawn) [2-decanol], the “~δp” value was around 10.0 MPa^1/2.
Take `CCC(CC)CO` [2-ethyl-1-butanol]: the “~δp” value is on record as around 4.3 MPa^1/2.
For `CCCCC(CC)CO` (stereo not drawn) [2-ethyl-hexanol], the “~δp” value was around 3.3 MPa^1/2.
Regarding `CCCC(C)O` (stereo not drawn) [2-pentanol], the “~δp” value is on record as around 6.4 MPa^1/2.
Take `CC(C)O` [2-propanol]: the “~δp” value is recorded as around 6.1 MPa^1/2.
Consider `C=CCO` [2-propenol], for which the “~δp” value is given as around 10.8 MPa^1/2.
As to `OCc1ccc(Cl)cc1` [4-chlorobenzyl alcohol], the “~δp” value is around 7.5 MPa^1/2.
On to `OC1CCCCC1` [cyclohexanol], for which the “~δp” value is recorded as around 4.1 MPa^1/2.
As to `CCO` [ethanol], the “~δp” value is given as around 8.8 MPa^1/2.
Consider `CC(C)CCCCCO` [isooctyl alcohol], for which the “~δp” value is recorded as around 7.3 MPa^1/2.
`CO` [methanol]: the “~δp” value is given as around 12.3 MPa^1/2.
As to `CCCCCCCCO` [octanol], the “~δp” value is around 3.3 MPa^1/2.
Turning to `CCCCCCCC/C=C\CCCCCCCCO` [oleyl alcohol], the “~δp” value is around 2.6 MPa^1/2.
For `CC(C)(C)O` [t-butyl alcohol], the “~δp” value was around 5.1 MPa^1/2.

Staying with this data set, now noted: glycol ethers; room temperature.
As for `CCCCOCCOCCO` [diethylene glycol mono-n-butyl ether], the “~δp” value was around 7.0 MPa^1/2.
On to `CCOCCOCCO` [diethylene glycol monoethyl ether], for which the “~δp” value is reported as around 9.2 MPa^1/2.
Consider `COCCOCCO` [diethylene glycol monomethyl ether], for which the “~δp” value was around 7.8 MPa^1/2.
Turning to `OCCOCc1ccccc1` [ethylene glycol monobenzyl ether], the “~δp” value is around 5.9 MPa^1/2.
With `CCCCOCCO` [ethylene glycol monobutyl ether], the “~δp” value is listed as around 5.1 MPa^1/2.
In the case of `CCOCCO` [ethylene glycol monoethyl ether], the “~δp” value is around 9.2 MPa^1/2.
`CC(C)OCCO` [ethylene glycol monoisopropyl ether]: the “~δp” value is around 8.2 MPa^1/2.
Regarding `COCCO` [ethylene glycol monomethyl ether], the “~δp” value is recorded as around 9.2 MPa^1/2.
`OCCOc1ccccc1` [ethylene glycol monophenyl ether]: the “~δp” value was around 5.7 MPa^1/2.
On to `CCCOCCO` [ethylene glycol monopropyl ether], for which the “~δp” value is recorded as around 8.2 MPa^1/2.
In the case of `CCCCOCC(C)O` (stereo not drawn) [propylene glycol monobutyl ether], the “~δp” value is around 4.5 MPa^1/2.
Consider `CCOCC(C)O` (stereo not drawn) [propylene glycol monoethyl ether], for which the “~δp” value is listed as around 6.5 MPa^1/2.
As for `CC(C)COCC(C)O` (stereo not drawn) [propylene glycol monoisobutyl ether], the “~δp” value is on record as around 4.7 MPa^1/2.
`CC(O)COC(C)C` (stereo not drawn) [propylene glycol monoisopropyl ether]: the “~δp” value was around 6.1 MPa^1/2.
As for `COCC(C)O` (stereo not drawn) [propylene glycol monomethyl ether], the “~δp” value is listed as around 6.3 MPa^1/2.
Turning to `CCCOCC(C)O` (stereo not drawn) [propylene glycol monopropyl ether], the “~δp” value is around 5.6 MPa^1/2.
For the compound `COCCOCCOCCO` [triethylene glycol monomethyl ether], the “~δp” value was around 7.6 MPa^1/2.
Turning to `CCCCCCCC/C=C\CCCCCCCCOCCOCCOCCO` [triethylene glycol monooleyl ether], the “~δp” value is on record as around 3.1 MPa^1/2.

The same data set, now with this note: room temperature.
In the case of `O` [water], the δp entry is listed as “≈ 16.0 MPa^1/2”.
